Where a name gives a salt, the structure may show the parent alone.
Assays:
PPCL-46 cells [1] = experiment: Cell migration (wound) assay, PPCL-46; type: cell-based, human; settings: PPCL-46, 5 µM, 48 h
Procedure: (§1) A cell migration assay was conducted to determine the effect of 4NSG-SLN on PPCL-192 and PPCL-46 cell motility. The Ibidi cell culture inserts were used to grow the cells into two confluent monolayers separated by a "wound" for this assay. The cells were seeded into 24-well plates at a cell density of 2.5 × 10^5, 48 h at 37 °C. At 75% confluency, cells formed adherent monolayers on either side of the tissue culture insert. Before treatment, the cells were serum-starved by replacing complete media with base media (DMEM) and then further incubated for 48 h. After serum starvation, the inserts were gently removed to generate a gap or "wound" between the two confluent layers of cells, and the monolayers were washed with experimental media. Afterward, cells were exposed to 5 μM concentration of GemHCl and 4NSG-SLN treatments. Images of the cells invading the wound were then captured after 48 h with a Nikon Ti Eclipse microscope.

EGFR = experiment: Immunohistochemistry of PDX tumor tissue, EGFR; type: in vivo, mice; settings: for EGFR % Moderate Positive Cells / EGFR % Positive / EGFR % Strong Positive Cells / EGFR % Weak Positive Cells / EGFR %Negative Cells / EGFR H Score: IHC
Procedure: [The source words this procedure for another target and reports this target under the same test.] Tissue samples from mice bearing tumors from Black and White PCa patients post treatments with GemHCl and 4NSG-SLN were excised and immediately washed with PBS, fixed (10% buffered formalin) for 24 h, and transferred to 70% ethanol for histopathological analysis. Histology was performed by HistoWiz Inc. (Histowiz.com) according to manufacturer protocol. Samples were embedded in paraffin, and 4 μm sections were prepared. Immunohistochemistry was performed on a Bond Rx autostainer (Leica Biosystems) with enzyme treatment (1:1000) using standard protocols (https://home.histowiz.com/faq/). Samples were incubated overnight with primary antibodies (Antibodies used were rat monoclonal F4/80 primary antibody (eBioscience, 14–4801, and 1:200), and immunohistochemical staining was done using rabbit anti-rat secondary (Vector Labs, 1:100). Bond Polymer Refine Detection was used per the manufacturer's protocol (Leica Biosystems). After staining, sections were dehydrated and filmed, coverslipped using a Tissue-Tek Prisma coverslip (Sakura). Whole slide scanning (40x) was performed on an Aperio AT2 (Leica Biosystems).

PPCL-192 cells [2] = experiment: Cell migration (wound) assay, PPCL-192; type: cell-based, human; settings: PPCL-192, 5 µM, 48 h
Procedure: as §1

PPCL-192 cells [3] = experiment: Cell cycle distribution (PI, flow cytometry), PPCL-192; type: cell-based, human; settings: 24 h
Procedure: (§2) Cell cycle study was performed to determine the effect of 4NSG-SLN on the cell cycle; PPCL-192 and PPCL-46 cells (2 × 10^5 cells per well) were seeded in 6-well plates and cultured using DMEM medium supplemented with 10% FBS10 mM HEPES, 10% FBS, and 1% penicillin/streptomycin were seeded in 6-well plates and incubated at 37 °C. After the cells reached 75% confluence, they were exposed to different concentrations (5 μM,10 μM, and 20 µM) of GemHCl and 4NSG-SLN. After 24 h exposure, cells were harvested, washed with PBS, centrifuged at 300 × g for 5 min, resuspended the pellets in 100 μL of PBS, and passed through a 28 5/8 needle to disperse them into single cells. Fixation and permeation of cells were performed using cold 70% ethanol while vortexing. Cells were then stored at − 20 °C overnight. The cells were resuspended in 0.1 mg/mL RNase, stained with […] PI, and the phase distribution was examined using flow cytometry (FACScalibur-Becton Dickinson).

PPCL-46 cells [4] = experiment: Cell cycle distribution (PI, flow cytometry), PPCL-46; type: cell-based, human; settings: 24 h
Procedure: as §2

[5] = Pharmacokinetic study in mice (i.v. bolus); type: in vivo; settings: single i.v. bolus, Gem equivalent (b110 prints 20 mg/kg)
Procedure: For pharmacokinetic (PK) studies, normal healthy mice were grouped into control, GemHCl, and 4NSG-SLN. […] After the injection, aliquots of blood samples were collected at predetermined time points (5, 10, 15, 30, 60, 120, 240, 360, 720, and 1440 min). Blood samples collected were treated with 2 mL of an extraction solvent (15% of isopropyl alcohol in ethyl acetate). The mixture was vortexed for 30 s and centrifuged at 3,000 rpm for 15 min, and the supernatant was collected and vaporized to dry overnight in a water bath. Residual solvent was removed by placing the dried samples in vacuum chamber.
Five hundred microliters (500 uL) of mobile phase solution was used to reconstitute the dried sample (mobile phase solution was made up of 5% acetonitrile in 10 mM dihydrogen phosphate buffer, pH adjusted to 3). The sample solution was centrifuged at 3,000 rpm for 15 min, supernatant collected and filtered, and samples analyzed for Gem using HPLC. The PK parameters were determined using PKSolver software.
To determine the concentration of Gem, supernatant from mouse plasma was spiked with aliquots of 0.5 μg/ml of Gem. The chromatographic analysis was performed according to the method described with minor modifications. The samples were collected using supernatants (10µL), aliquots of control (spiked), and mouse plasma. The chromatographic system consisted of an HPLC (Agilent Technologies, 1290 infinity) equipped with an auto-sampler, diode array detector (DAD), and pumps. Separation was performed using a reverse phase column (Zobrax Rapid Resolution High Definition (RRHD) Eclipse plus C18, 2.1 × 50 mm, 1.8 µm). A flow rate of 250 µL/min and injection volume of 10 μL at ambient temperature was maintained at 25 ± 1 °C while detection was performed at 268 nm. Before analysis, the reverse phase column was equilibrated with a mobile phase of 5% acetonitrile in 10 mM dihydrogen phosphate buffer, pH adjusted to 2.5 with trifluoroacetic acid (TFA). Isocratic elution was performed throughout the entire analysis, including internal standards. A calibration curve was prepared using Gem standard solutions with a concentration range of 0.063–2.0 μg/mL. A plot of the peak areas as a function of Gem concentration was plotted, and the linear equation of the calibration curve given as y = mx + c was determined, where y is the peak area, m is the slope, x is the concentration of Gem, and c is the y—intercept.

[6] = BT PDX tumor tissue after treatment
[7] = WT PDX tumor tissue after treatment

Nc1ccn([C@@H]2O[C@H](CO)[C@@H](O)C2(F)F)c(=O)n1 [GemHCl, Gemcitabine hydrochloride]
Number of cells migrated (PPCL-46 cells [1]): 120 ± 3.8
EGFR % Moderate Positive Cells (EGFR; [6]): 0.6 ± 0.2%
EGFR % Positive (EGFR; [6]): 25 ± 4.5%
EGFR % Strong Positive Cells (EGFR; [6]): 0.5 ± 0.1%
EGFR % Weak Positive Cells (EGFR; [6]): 1.4 ± 0.1%
EGFR %Negative Cells (EGFR; [6]): 72.5 ± 1.5%
EGFR H Score (EGFR; [6]): 3.0
EGFR expression in representative IHC images (EGFR; BT and WT PDX tumor tissues, 40X): moderate to high
EGFR % Moderate Positive Cells (EGFR; [7]): 3.1 ± 2.1%
EGFR % Positive (EGFR; [7]): 20 ± 10%
EGFR % Strong Positive Cells (EGFR; [7]): 2.3 ± 1.5%
EGFR % Weak Positive Cells (EGFR; [7]): 2.7 ± 0.7%
EGFR %Negative Cells (EGFR; [7]): 71.9 ± 1.6%
EGFR H Score (EGFR; [7]): 22.1
Number of cells migrated (PPCL-192 cells [2]): 84 ± 3.1
%G1 (PPCL-192 cells [3]; PPCL-192, 5 μM): 71.08%
%G2 (PPCL-192 cells [3]; PPCL-192, 5 μM): 11.05%
%S (PPCL-192 cells [3]; PPCL-192, 5 μM): 17.87%
%G1 (PPCL-192 cells [3]; PPCL-192, 10 μM): 74.75%
%G2 (PPCL-192 cells [3]; PPCL-192, 10 μM): 9.59%
%S (PPCL-192 cells [3]; PPCL-192, 10 μM): 15.66%
%G1 (PPCL-192 cells [3]; PPCL-192, 20 μM): 79.91%
%G2 (PPCL-192 cells [3]; PPCL-192, 20 μM): 8.23%
%S (PPCL-192 cells [3]; PPCL-192, 20 μM): 11.86%
%G1 (PPCL-46 cells [4]; PPCL-46, 5 μM): 72.75%
%G2 (PPCL-46 cells [4]; PPCL-46, 5 μM): 12.56%
%S (PPCL-46 cells [4]; PPCL-46, 5 μM): 14.69%
%G1 (PPCL-46 cells [4]; PPCL-46, 10 μM): 74.08%
%G2 (PPCL-46 cells [4]; PPCL-46, 10 μM): 10.39%
%S (PPCL-46 cells [4]; PPCL-46, 10 μM): 15.53%
%G1 (PPCL-46 cells [4]; PPCL-46, 20 μM): 76.35%
%G2 (PPCL-46 cells [4]; PPCL-46, 20 μM): 9.54%
%S (PPCL-46 cells [4]; PPCL-46, 20 μM): 14.11%
clearance ([5]; mouse, plasma, iv, read-out: Cl (clearance) (converted)): 0.355 mL/min
Vd ([5]; mouse, plasma, iv, read-out: Vd (volume of distribution)): 0.0217 ± 0.0019 L
k el ([5]; mouse, plasma, iv, read-out: k10 (elimination rate constant) (converted)): 0.000281 s⁻¹
half-life ([5]; mouse, plasma, iv, read-out: t1/2 (half-life) (converted)): 42 ± 0.6 min
AUC(0-t) [5]: 28.2 ± 4.3 µg·h/mL
